Laboratory results from patent US7314726B2, “Beta secretase exosite binding peptides and methods for identifying beta secretase modulators” (Bristol-Myers Squibb Company, priority 2002, dated 2008).

Assays:
[1] = target: T1, BACE (Homo sapiens, UniProt P56817); experiment: Isothermal titration calorimetry (ITC) of BACE and peptides; assay type: binding; parameters: The cDNA for the catalytic domain of human BACE (residues 1-460) was PCR-amplified; human IgG1 heavy chain (C, cleaved yes); thrombin cleavage site (C); made in house; host or cells: CHO DG44 cells (stably transfected, secreted)
Procedure: Isothermal titration calorimetry was performed to determine quantitatively the binding affinities of BMS-561877 and BMS-561871 for β-secretase. Recombinant human BACE was expressed as a fusion protein with human IgG1, in Chinese hamster ovary (CHO) cells (Vassar et al., (1999) Science 286:735-741 and Haniu et al., (2000) J. Biol. Chem. 275:21099-21106).
This construct, referred to as BACE-T-IgG, also contained a protease cleavage site between BACE and IgG1, sensitive to human α-thrombin. The cDNA for the catalytic domain of human BACE (residues 1-460) was PCR-amplified and subcloned into the mammalian expression vector pTV1.6, upstream of a thrombin cleavage site linked to cDNA encoding human IgG1 heavy chain. The vector construct, pTV1.6-BACE-T-IgG, was used to produce stably transfected DHFR-deficient CHO DG44 cells, which were then scaled up using methotrexate for selection.
The clarified growth media harvested from CHO DG44 cells which contained the fusion protein was loaded onto a rProtein A SEPHAROSE™ column (5×20 cm, Amersham Pharmacia Biotech) using a peristaltic pump at 4° C., at 4 mL/min. The column was washed with Dulbecco's PBS, pH 7.1, 4 mL/min, until baseline absorbance at 280 nm was observed. BACE-T-IgG was eluted from the resin with 0.10 M citrate, pH 3.0, into tubes containing 0.5 volumes of 4 M Tris, pH 8. Fractions containing the fusion protein were dialyzed extensively using 12,000-14,000 […] MWCO membrane (UltraPURE, GIBCO BRL) against PBS, pH 7.1, at 4° C. The protein was sterile filtered (0.22 μm) and stored at 4° C.
To generate BACE for binding experiments, the fusion protein BACE-T-IgG was treated with human α-thrombin (Enzyme Research Labs, South Bend, Ind.) at a ratio of 1:500 (mass:mass) in Dulbecco's PBS, pH 7.1, at 37° C. for 2 hr. Human α-thrombin was removed by passing the sample over Benzamidine SEPHAROSE™ 6B column (Amersham Pharmacia Biotech). The cleaved IgG1 was captured by passing the solution over a rProtein A SEPHAROSE™ (Amersham Pharmacia Biotech) column, whereas the BACE passed through this column. The protein sample was further purified by concentrating to 10-15 mg/mL using a centrifugation concentration unit (Millipore Ultrafree 10 kDa MWCO, 15 mL unit) and loading onto a SUPERDEX™ 200 PC 3.2/30 gel-filtration column (Amersham Pharmacia Biotech). The column was run at 3 mL/min with Dulbecco's PBS, pH 7.1, at room temperature. Fractions containing BACE were combined, sterile filtered (0.22 μm) and stored at 4° C.
BACE was prepared for isothermal titrating calorimetry by extensive dialysis against fresh buffer at 4° C. using 12,000-14,000 […] MWCO dialysis membrane (UltraPURE, GIBCO BRL). […] Following 2 buffer changes, the protein was removed from the membrane and centrifuged (5 min×4000 g, 4° C.) to remove particulates. The protein was stored at 4° C. until needed for the calorimetry experiments. The protein concentration was determined by 10-fold dilution into the same buffer, and measuring the UV absorbance at 280 nm in a 1.00 cm pathlength cell (calculated value=1.22 AU=1.00 mg/mL protein, based on mean glycosylated molecular weight=53.5 kDa, and given amino acid composition). Final concentrations used in isothermal titrating calorimetry were typically 5.0 μM, containing a final concentration of 0.5% v/v DMSO.
Peptides were dissolved in the buffer dialysate from protein dialysis, and equal volumes of DMSO were added to each (0.5% v/v DMSO). The pH values of the solutions were adjusted as necessary to equal that of the buffer dialysate and protein sample within 0.01 pH units.

[2] = target: T1, BACE; experiment: Competitive binding assay, displacement of labeled EBP from BACE, fluorescence anisotropy; parameters: The cDNA for the catalytic domain of human BACE (residues 1-460) was PCR-amplified; human IgG1 heavy chain (C, cleaved yes); thrombin cleavage site (C); made in house; host or cells: CHO DG44 cells (stably transfected, secreted); details: displacement of Molecule X, read-out: binding constant (Kd) of unlabeled peptide by competition
Procedure: The competitive binding assay was carried out at pH 7.1 (PBS buffer) or pH 4.5 (50 mM acetate buffer). The fluorescence anisotropy was measured at 25° C. in an AVIV fluorometer. The excitation and emission wavelengths were set to 495 and 519 nm, respectively. The excitation and emission slit widths were 4 and 10 nm, respectively.
The initial anisotropy value was measured. A concentrated unlabeled peptide or compound stock was titrated into the above solution of EBP and BACE. The final concentration of unlabeled peptide or compound ranges from 20 to 20000 nM. After each addition, the solution was mixed for 10 times with a pipettor. The fluorescence anisotropy was averaged over a 5 minute period.
The change in anisotropy was converted to fractional occupancy based on the r0 and rb obtained from the binding assay. The fractional occupancy was then plotted against the concentration of the competing peptide or compound. (see, for example, FIG. 6) The Kd of the competing ligand was calculated from curve fitting using the program […]™ (Synergy Software, Reading, Pa.). The equation used to fit the competition data is identical to equation 4 in Lai et al., (2000) Arch. Biochem. Biophys. 381:278-284.
The truncated unlabeled peptides were screened at a single concentration of 10 μM at pH 4.5. The anisotropy values detected with Molecule X in the absence of inhibitor, i.e., truncated unlabeled peptide (ra) and in the presence of the inhibitor (rb) and the labeled peptide alone (r0) were used to calculate the percent of inhibition: 100 (ra-rb)/(ra-r0). The percent of inhibition was compared among the truncated peptides.

[3] = pH 5.3, 37° C., sample cell: CHO BACE
[4] = pH 5.3, 37° C., sample cell: CHO BACE: OM99-2 (10-fold excess added first)

T1 sequence (P56817 46-460 limits assumed): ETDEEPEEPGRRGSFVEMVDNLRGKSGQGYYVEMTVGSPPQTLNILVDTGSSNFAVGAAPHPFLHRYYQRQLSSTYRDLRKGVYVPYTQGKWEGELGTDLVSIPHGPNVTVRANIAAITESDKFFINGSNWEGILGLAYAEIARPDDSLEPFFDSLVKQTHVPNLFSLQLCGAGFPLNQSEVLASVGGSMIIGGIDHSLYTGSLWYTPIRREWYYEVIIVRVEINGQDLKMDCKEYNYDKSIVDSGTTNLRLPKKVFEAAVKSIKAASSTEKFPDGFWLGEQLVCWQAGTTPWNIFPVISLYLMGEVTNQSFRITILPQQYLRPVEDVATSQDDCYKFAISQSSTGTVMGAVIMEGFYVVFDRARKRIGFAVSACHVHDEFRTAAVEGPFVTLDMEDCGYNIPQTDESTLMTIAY

## Ac-NLTTYPYFIPLP-OH [BMS-561871]
[1]; 25° C., Dulbecco's PBS, pH 7.1
  KA: 1.65e+07 M⁻¹
  Kd: 61 nM
  n (binding stoichiometry): 1.03
  ΔH: -12.9 kcal/mol
[1]; [3]
  Kd: 380 nM
  T(dS): -6.8 kcal/mol
  ΔG: -9.1 kcal/mol
  ΔH: -15.9 kcal/mol
[1]; [4]
  Kd: 280 nM
  T(dS): -5.7 kcal/mol
  ΔG: -9.3 kcal/mol
  ΔH: -15.0 kcal/mol
[2]; pH 4.5
  Kd: 1070 nM
[2]; pH 7.1
  Kd: 84 nM
